Data as given in patent publication US10639298B2 (Biohaven Pharmaceutical Holding Company Ltd., priority 2015, dated 2020).
Where two headings read alike, the source gives them in different places.

Legend:
[1] = Rat pharmacokinetic studies of prodrug and released riluzole (IV or oral); assay type: in vivo, Sprague-Dawley rats; conditions: rat, plasma, fasted male Sprague Dawley rats; for clearance: read-out: Compound of the disclosure Cl (converted); for Vd: read-out: Compound of the disclosure Vss; for half-life: read-out: Compound of the disclosure t1/2 (converted)
Description: Rat Pharmacokinetic Studies of the Compounds of the Disclosure:
Blood samples were collected at pre-determined time points including a 0 h time point and usually between 7 and 8 additional time points not exceeding a 24 h period.
Plasma samples were extracted and analyzed using the methods described in Plasma Sample Extraction and Analysis. All data are expressed as ng/mL of the free base. Samples that were below the limit of quantification (0.5 ng/mL) were not used in the calculation of averages.
Pharmacokinetic parameters were calculated from the time course of the plasmaconcentrations. Pharmacokinetic parameters were determined with Phoenix Winnonlin (v6.3) software using a non-compartmental model. The maximum plasma concentration (Cmax) and time to the maximum plasma concentration (Tmax) of the compound of the disclosure were observed from the data. The area under the concentration-time curve (AUC) of the compound of the disclosure was calculated using the trapezoidal formula with calculation to the last quantifiable data point, and to infinity if applicable. Plasma half-life (t½) was calculated from 0.693/slope of the terminal elimination phase. Mean residence time, MRT, was calculated by dividing the area under the moment curve (AUMC) by the AUC. Any samples below the limit of quantitation (0.5 ng/mL) were treated as zero for pharmacokinetic data analysis.
Plasma Sample Extraction and Analysis:
Analytical stock solutions (1.00 mg/mL of the free compound of the disclosure) were prepared in DMSO. Standards were prepared in diluted matrix containing 1 part 10% formic acid and 9 parts Sprague-Dawley rat plasma containing sodium heparin as the anticoagulant (pre-diluted with 1 part of 0.5M citric acid and 9 parts whole blood). Working solutions were prepared in 50:50 acetonitrile:water. Working solutions were then added to plasma to make calibration standards to final concentrations of 1000, 500, 100, 50, 10, 5, 1, and 0.5 ng/mL. Standards contained both the test article and riluzole. Standards were treated identically to the study samples.
Plasma samples were extracted via acetonitrile precipitation on a Tomtec Quadra 96-Model 320 liquid handling system in a 96-well plate format.

[2] = PK in fasted male mice, prodrug and released riluzole (IV, PO); conditions: mouse, in vivo; for AUC(0-t): read-out: Prodrug AUClast (Mean)
[3] = tested on: Stage III and IV melanoma; conditions: 14 days of treatment, cited from earlier work
[4] = IV, prodrug dose 2.8 mg/Kg, read-out: Compound of the disclosure AUClast
[5] = PO 5 mg/kg, read-out: Prodrug AUClast (Mean)

Row | AUC(0-t) [1, 4] [ng·h/mL] | clearance ([1]; IV, prodrug dose 2.8 mg/Kg) [mL/min/kg] | Vd ([1]; IV, prodrug dose 2.8 mg/Kg) [L/kg] | half-life ([1]; IV, prodrug dose 2.8 mg/Kg) [h] | Compound | other results
1 | 1290 | 36.3 | 6.15 | 4.83 | CN(CC(=O)Nc1nc2ccc(OC(F)(F)F)cc2s1)C(=O)C1(CN)CCCCC1 [Example 121, 1-(aminomethyl)-N-methyl-N-(2-oxo-2-((6-(trifluoromethoxy)benzo[d]thiazol-2-yl)amino)ethyl)cyclohexane-1-carboxamide] | –
2 | 232 | 220 | 2.47 | 0.237 | CN(CC(=O)Nc1nc2ccc(OC(F)(F)F)cc2s1)C(=O)CNC(=O)CN [Example 204, 2-Amino-N-{[methyl({[6-(trifluoromethoxy)-1,3-benzothiazol-2-yl]carbamoyl}methyl)carbamoyl]methyl}acetamide] | Cmax ([1]; PO 5 mg/kg): 1.84 ng/mL; Tmax ([1]; PO 5 mg/kg): 0.28 h; AUC(0-t) [1, 5]: 0.9 ng·h/mL; AUC(0-inf) ([2]; IV 1 mg/kg, read-out: Prodrug AUCinf (Mean)): 533 ng·h/mL; AUC(0-t) ([2]; IV 1 mg/kg): 532 ng·h/mL; clearance ([2]; IV 1 mg/kg, read-out: Prodrug CL (Mean) (converted)): 32.3 mL/min/kg; half-life ([2]; IV 1 mg/kg, read-out: Prodrug T1/2 (Mean) (converted)): 0.29 h; Vd ([2]; IV 1 mg/kg, read-out: Prodrug Vss (Mean)): 0.46 L/kg; Cmax ([2]; PO 5 mg/kg): 4.71 ng/mL; Tmax ([2]; PO 5 mg/kg): 0.33 h; AUC(0-t) ([2]; PO 5 mg/kg): 3.85 ng·h/mL
3 | 1910 | 23 | 2.53 | 3.98 | CN(CC(=O)Nc1nc2ccc(OC(F)(F)F)cc2s1)C(=O)CNC1CCNCC1 [Example 216, N-Bethyl-2-[(piperidin-4-yl)amino]-N-({[6-(trifluoromethoxy)-1,3-benzothiazol-2-yl]carbamoyl}methyl)acetamide] | Cmax ([1]; PO 5 mg/kg): 2.96 ng/mL; Tmax ([1]; PO 5 mg/kg): 2.17 h; AUC(0-t) [1, 5]: 16.6 ng·h/mL
4 | 580 | 81.2 | 2.67 | 0.63 | CC(C)NCC(=O)N(C)CC(=O)Nc1nc2ccc(OC(F)(F)F)cc2s1 [Example 124, 2-(isopropylamino)-N-methyl-N-(2-oxo-2-((6-(trifluoromethoxy)benzo[d]thiazol-2-yl)amino)ethyl)acetamide] | –
5 | – | – | – | – | CNCC(=O)NC1(C(=O)Nc2nc3ccc(OC(F)(F)F)cc3s2)CCC1 [Example 83, 1-(2-(methylamino)acetamido)-N-(6-(trifluoromethoxy)benzo[d]thiazol-2-yl)cyclobutane-1-carboxamide] | AUC(0-t) ([1]; IV, prodrug dose 1.8 mg/Kg, read-out: Compound of the disclosure AUClast): 1720 ng·h/mL; clearance ([1]; IV, prodrug dose 1.8 mg/Kg): 11.3 mL/min/kg; Vd ([1]; IV, prodrug dose 1.8 mg/Kg): 5.06 L/kg; half-life ([1]; IV, prodrug dose 1.8 mg/Kg): 5.56 h
6 | 219 | 66.3 | 0.861 | 0.28 | CNCC(=O)N(C)CC(=O)Nc1nc2ccc(OC(F)(F)F)cc2s1 [Example 122, N-methyl-2-(methylamino)-N-(2-oxo-2-((6-(trifluoromethoxy)benzo[d]thiazol-2-yl)amino)ethyl)acetamide] | –
7 | 1720 | 27.2 | 4.7 | 9.3 | CN(CC(=O)Nc1nc2ccc(OC(F)(F)F)cc2s1)C(=O)C1(CN)CC1 [Example 119, 1-(aminomethyl)-N-methyl-N-(2-oxo-2-((6-(trifluoromethoxy)benzo[d]thiazol-2-yl)amino)ethyl)cyclopropane-1-carboxamide] | –
8 | 787 | 59 | 2.04 | 0.68 | CCNCC(=O)N(C)CC(=O)Nc1nc2ccc(OC(F)(F)F)cc2s1 [Example 123, 2-(ethylamino)-N-methyl-N-(2-oxo-2-((6-(trifluoromethoxy)benzo[d]thiazol-2-yl)amino)ethyl)acetamide] | –
9 | 3240 | 14.2 | 1.1 | 1.5 | CN(CC(=O)Nc1nc2ccc(OC(F)(F)F)cc2s1)C(=O)CNC1COC1 [Example 234, N-Methyl-2-[(oxetan-3-yl)amino]-N-({[6-(trifluoromethoxy)-1,3-benzothiazol-2-yl]carbamoyl}methyl)acetamide] | –
10 | – | – | – | – | CN(CC(=O)Nc1nc2ccc(OC(F)(F)F)cc2s1)C(=O)CNC1CNC1 [Example 212, 2-[(Azetidin-3-yl)amino]-N-methyl-N-({[6-(trifluoromethoxy)-1,3-benzothiazol-2-yl]carbamoyl}methyl)acetamide] | AUC(0-t) ([1]; IV, prodrug dose 1.4 mg/Kg, read-out: Compound of the disclosure AUClast): 218 ng·h/mL; clearance ([1]; IV, prodrug dose 1.4 mg/Kg): 104 mL/min/kg; Vd ([1]; IV, prodrug dose 1.4 mg/Kg): 6.21 L/kg; half-life ([1]; IV, prodrug dose 1.4 mg/Kg): 2.43 h
11 | 3620 | 9 | 3.55 | 4.75 | CCNCC(=O)N1CCC[C@@H]1C(=O)Nc1nc2ccc(OC(F)(F)F)cc2s1 [Example 52, (R)-1-N-ethylglycinyl-N-(6-(trifluoromethoxy)benzo [d]thiazol-2-yl) pyrrolidine-2-carboxamide] | –
12 | 4650 | 5.75 | 3.19 | 6.51 | CNCC(=O)NC(C)(C)C(=O)Nc1nc2ccc(OC(F)(F)F)cc2s1 [Example 111, 2-methyl-2-(2-(methylamino)acetamido)-N-(6-(trifluoromethoxy)benzo[d]thiazol-2-yl)propanamide] | –
13 | 1440 | 22.3 | 9.66 | 6.7 | NCC1(C(=O)N2CCC[C@@H]2C(=O)Nc2nc3ccc(OC(F)(F)F)cc3s2)CCCCC1 [Example 173, (R)-1-(1-(aminomethyl)cyclohexane-1-carbonyl)-N-(6-(trifluoromethoxy)benzo[d]thiazol-2-yl)pyrrolidine-2-carboxamide] | –
14 | 2480 | 18.8 | 3.35 | 10.4 | CN(CC(=O)Nc1nc2ccc(OC(F)(F)F)cc2s1)C(=O)C(C)(C)CN [Example 118, 3-Amino-N,2,2-trimethyl-N-(2-oxo-2-((6-(trifluoromethoxy)benzo[d]thiazol-2-yl)amino)ethyl)propanamide] | –
15 | 2760 | 11.5 | 4.88 | 5.45 | CC(C)NCC(=O)NC(C)(C)C(=O)Nc1nc2ccc(OC(F)(F)F)cc2s1 [Example 113, 2-(2-(isopropylamino)acetamido)-2-methyl-N-(6-(trifluoromethoxy)benzo[d]thiazol-2-yl)propanamide] | –
16 | 2460 | 19 | 3.63 | 8.66 | CN(CC(=O)Nc1nc2ccc(OC(F)(F)F)cc2s1)C(=O)C1(CN)CCCC1 [Example 120, 1-(aminomethyl)-N-methyl-N-(2-oxo-2-((6-(trifluoromethoxy)benzo[d]thiazol-2-yl)amino)ethyl)cyclopentane-1-carboxamide] | –
17 | 2770 | 10.7 | 5.11 | 6.2 | CC(C)(CN)C(=O)N1CCC[C@H]1C(=O)Nc1nc2ccc(OC(F)(F)F)cc2s1 [Example 59, (S)-1-(3-amino-2,2-dimethylpropanoyl)-N-(6-(trifluoromethoxy)benzo[d]thiazol-2-yl)pyrrolidine-2-carboxamide] | –
18 | 663 | 71.3 | 4.14 | 1.03 | NCC(=O)NC1(C(=O)Nc2nc3ccc(OC(F)(F)F)cc3s2)CCC1 [Example 82, 1-(2-aminoacetamido)-N-(6-(trifluoromethoxy)benzo[d]thiazol-2-yl)cyclobutane-1-carboxamide] | –
19 | – | – | – | – | Nc1nc2ccc(OC(F)(F)F)cc2s1 [riluzole] | Patients with clinical or radiologic evidence of tumor response ([3]; listed as Riluzole): four of 12; Patients with clinical or radiologic evidence of tumor response [3]: four of twelve
